Test results published in patent US20070276034A1, “Compounds, compositions and methods for the treatment of synucleinopathies” (priority 2002, published 2007).
Like-named read-outs stand apart in the source and are kept apart here.

Key:
Format in all cases: biochemical
IAPP fibrils [1] = biological target: T1, IAPP fibrils (Homo sapiens, UniProt P10997); assay: Congo red binding assay with IAPP fibrils; conditions: 3-day incubation
T1 construct: purchased Bachem Inc
T1 sequence (P10997 34-70 limits assumed): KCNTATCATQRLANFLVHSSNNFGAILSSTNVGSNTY
Outline: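 Congo red staining of washed 0.2 μm filters measured the aggregated IAPP retained after a 3-day co-incubation with compound or EDTA. Weight ratios IAPP:compound were 1:1, 1:0.1, 1:0.01 or 1:0.001; loss of color relative to compound-free IAPP was scored.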

IAPP fibrils [2] = biological target: T1, IAPP fibrils; assay: Thioflavin T fluorometry - disruption of type 2 diabetes IAPP fibrils; conditions: 25 μM pre-fibrillized IAPP, 37° C., 3 days, read-out: % Inhibition IAPP (result ± S.D.)
Outline: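 Pre-fibrillized human IAPP (25 μM) incubated 3 days at 37 °C alone or with compound at IAPP:compound weight ratios of 1:1 to 1:0.001. Mixtures then mixed with Thioflavin T in phosphate buffer pH 6.8; fluorescence read at 485 nm (ex 444 nm) after blank subtraction.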

NAC fibrils = biological target: T2, NAC fibrils (Homo sapiens, UniProt P37840); assay: Thioflavin T fluorometry - disruption of Parkinson's disease NAC fibrils; conditions: 3 days; for inhibition: 25 μM pre-fibrillized NAC, 37° C., read-out: % Inhibition NAC (result ± S.D.)
T2 construct: NAC is a 35-amino acid fragment of α-synuclein; purchased Bachem Inc
Experimental: In this assay, Thioflavin T binds specifically to NAC fibrils, and this binding produces a fluorescence enhancement at 485 nm that is directly proportional to the amount of NAC fibrils present. The higher the fluorescence, the greater the amount of NAC fibrils present (Naki et al, Lab. Invest. 65:104-110, 1991; Levine III, Protein Sci. 2:404-410, 1993; Amyloid: Int. J. Exp. Clin. Invest. 2:1-6, 1995).
In this study, 25 μM of pre-fibrillized NAC (Bachem Inc) was incubated at 37° C. for 3 days either alone or in the presence of dihydroxy synthetic analog compounds #1, 3, 23, 26, 52, 63, 66, 67, or EDTA (at NAC:test compound weight ratios of 1:1, 1:0.1, 1:0.01 or 1:0.001). Following 3-days of co-incubation, 50 βl of each incubation mixture was transferred into a 96-well microtiter plate containing 150 μl of distilled water and 50 μl of a Thioflavin T solution (i.e. 500 mM Thioflavin T in 250 mM phosphate buffer, pH 6.8). The fluorescence was read at 485 nm (444 nm excitation wavelength) using an ELISA plate fluorometer after subtraction with buffer alone or compound alone, as blank.

Aβ 1-42 fibrils = biological target: T3, Aβ 1-42 fibrils (Homo sapiens, UniProt P05067); assay: Thioflavin T fluorometry - disruption of pre-formed Aβ 1-42 Alzheimer's fibrils; conditions: 25 μM pre-fibrillized Aβ 1-42, 37° C., 3 days, read-out: % Inhibition Aβ (result ± S.D.)
T3 construct: purchased Bachem Inc
Outline: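 Pre-fibrillized Aβ1-42 (25 µM) incubated 3 days at 37 °C alone or with compound at Aβ:compound weight ratios 1:1 to 1:0.001. Remaining fibrils quantified by Thioflavin T fluorescence (ex 444/em 485 nm) in phosphate buffer pH 6.8, blank-subtracted for buffer or compound alone.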

[3] = IAPP:test compound wt/wt ratio 1:0.001
[4] = IAPP:test compound wt/wt ratio 1:0.01
[5] = IAPP:test compound wt/wt ratio 1:0.1
[6] = IAPP:test compound wt/wt ratio 1:1
[7] = NAC:test compound wt/wt ratio 1:0.001
[8] = NAC:test compound wt/wt ratio 1:0.01
[9] = NAC:test compound wt/wt ratio 1:0.1
[10] = NAC:test compound wt/wt ratio 1:1
[11] = Aβ:test compound wt/wt ratio 1:0.001
[12] = Aβ:test compound wt/wt ratio 1:0.01
[13] = Aβ:test compound wt/wt ratio 1:0.1
[14] = Aβ:test compound wt/wt ratio 1:1

T3 sequence (P05067 672-713): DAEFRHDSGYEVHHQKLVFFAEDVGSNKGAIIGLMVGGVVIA

SMILES	% Inhibition IAPP (result ± S.D.), Congo red binding (IAPP fibrils [1]; [3]) [%]	% Inhibition IAPP (result ± S.D.), Congo red binding (IAPP fibrils [1]; [4]) [%]	% Inhibition IAPP (result ± S.D.), Congo red binding (IAPP fibrils [1]; [5]) [%]	% Inhibition IAPP (result ± S.D.), Congo red binding (IAPP fibrils [1]; [6]) [%]	inhibition (IAPP fibrils [2]; [3]) [%]	inhibition (IAPP fibrils [2]; [4]) [%]	inhibition (IAPP fibrils [2]; [5]) [%]	inhibition (IAPP fibrils [2]; [6]) [%]	inhibition (NAC fibrils; [7]) [%]	inhibition (NAC fibrils; [8]) [%]	inhibition (NAC fibrils; [9]) [%]	inhibition (NAC fibrils; [10]) [%]	inhibition (Aβ 1-42 fibrils; [11]) [%]	inhibition (Aβ 1-42 fibrils; [12]) [%]	inhibition (Aβ 1-42 fibrils; [13]) [%]	inhibition (Aβ 1-42 fibrils; [14]) [%]	disruption/disassembly of pre-formed NAC fibrils (in words) (NAC fibrils; all concentrations tested (ratios 1:1 to 1:0.001))
O=C(N[C@@H]1CCCC[C@H]1NC(=O)c1ccc(O)c(O)c1)c1ccc(O)c(O)c1 (relative stereo) [Compound 26, N,N′-bis(3,4-dihydroxybenzoyl)-trans-1,2-diaminocyclohexane]	10.8 ± 2.63	5.3 ± 6.14	7.5 ± 2.83	0.0 ± 1.21	3.7 ± 4.67	24.6 ± 6.77	45.9 ± 17.7	52.5 ± 2.44	0	56.8 ± 4.6	61.3 ± 6.52	70.4 ± 3.22	0	0	11.7 ± 3.67	37.8 ± 5.5	–
O=C(CCC(=O)NCc1ccc(O)c(O)c1)NCc1ccc(O)c(O)c1 [Compound 67, succinic acid bis(3,4-dihydroxybenzylamide)]	0.0 ± 3.45	10.6 ± 1.29	5.5 ± 2.52	26.3 ± 2.76	16.1 ± 12.4	34.8 ± 1.87	81.4 ± 6.96	98.6 ± 0.22	11.9 ± 16	30.6 ± 5.75	50 ± 7.03	97.4 ± 1.19	13.7 ± 6.05	34 ± 14.1	50.9 ± 8.32	98.3 ± 2.19	dose-dependent disruption/disassembly
O=C(NCc1ccc(O)c(O)c1)C(=Cc1ccc(O)c(O)c1)NC(=O)c1ccc(O)c(O)c1 [Compound 21, α-(3,4-dihydroxybenzamido)-3,4-dihydroxycinnamic acid 3,4-dihydroxybenzyl amide]	0.0 ± 2.10	5.1 ± 4.53	10.4 ± 3.53	35.9 ± 0.21	5.4 ± 15.4	25.8 ± 3.61	85.4 ± 0.86	98.5 ± 0.06	–	–	–	–	8.9 ± 2.13	48.2 ± 8.29	81 ± 1.31	98.6 ± 0.54	–
O=C(Nc1ccc(O)c(O)c1)Nc1ccc(O)c(O)c1 [Compound 76, 1,3-bis(3,4-dihydroxyphenyl)urea]	3.4 ± 1.07	14.2 ± 2.25	16.5 ± 2.60	53.9 ± 5.44	9 ± 0.32	41.5 ± 6.67	87.5 ± 1.89	99.6 ± 1.01	–	–	–	–	12.2 ± 5.98	40.9 ± 3.76	86.5 ± 1.18	99.3 ± 1.35	–
